Experimental data reported in patent US8143226B2, “Tyrosine kinase receptor antagonists and methods of treatment for breast cancer” (The Regents of the University of California, priority 2005, dated 2012).
pIC50: −log10 of the molar value.

Experiments:
[1] = test system: pancreatic cancer cells; assay: Growth of pancreatic cancer cells in vitro; format: cell-based; conditions: FIG. 3
[2] = test system: Akt; assay: IGF-stimulated Akt phosphorylation in neuroblastoma cells; format: cell-based, human; conditions: SH-SY5Y and SHEP cells
Experimental: Detection of phospho-Akt and phospho-Erk. […] Then, some cultures were treated with 10 nM IGF-I for 15 min. Cultures were immediately placed on ice, the medium was removed, and the cells were lysed in modified RIPA buffer (20 mM Tris, 150 mM NaCl, 1 mM EDTA, 1 mM EGTA, 1% Triton X-100, 0.1% sodium dodecyl sulfate, and 1% deoxycholate). Fifty μg of protein from each sample were separated via SDS-PAGE and transfened to nitrocellulose. Phospho- and total-Akt and -Erk were detected by immunoblotting.

[3] = test system: SH-SY5Y cells; assay: Propidium iodide flow cytometry of apoptotic (sub-G0) SH-SY5Y cells; format: cell-based, human; conditions: SH-SY5Y cells in serum, 30-120 μM, 24 h
Experimental: Propidium iodide staining of apoptotic cells. SH-SY5Y cells were cultured in DMEM with 10% calf serum. […] The supernatant was collected to save detached cells. Attached cells were removed from the plate via trypsinization, and pelleted by centrifugation in combination with the cells in the supernatant. The cell pellet was fixed by drop-wise addition of cold 70% ethanol while vortexing, gently, and stored at 4° C. The pellet was washed twice and resuspended in PBS and stained with 1 μg/ml propidium iodide. Propidium iodide fluorescence was measured in 30,000 cells per sample using a Becton-Dickinson (Franklin Lakes, N.J.) Facscalibur flow cytometer. The percentage of cells in each stage of the cell cycle, as well as the percentage of cells that were apoptotic (sub-G0) was determined by analyzing the data with ModFit software. The experiment was repeated three times.

[4] = test system: MCF-7 cells; assay: Proliferation of MCF-7 cells in 10% fetal calf serum (CyQUANT); format: cell-based, human; conditions: MCF-7, 10% fetal calf serum
Experimental: MCF-7 or MCNeuA cells were plated in 96 well plates (5×10^3 cells/well) in DMEM supplemented with 10% FCS. One plate was prepared for each harvest day. […] Microplate cultures were harvested on days 0, 1, 2, and 3 by inverting the microplate onto paper towels with gentle blotting to remove growth medium without disrupting adherent cells. Each plate was kept at −80° C. until the end of the experiment (day 3) when all of the plates were thawed and assayed together. After thawing, 200 μl of CyQUANT GR solution was added to each well and the plates were incubated in the dark for two to five minutes. Fluorescence was measured with a SpectraMax Gemini XS fluorescence microplate reader (Molecular Devices, Sunnyvale, Calif.) with 480-nm excitation and 520-nm emission. Proliferation index was calculated as the percent of nucleotide content versus control cells at day 0.

[5] = test system: PDGF receptor; conditions: Domin et al. 1994; cited from earlier work
[6] = target: T1, IGF-1R (Mus musculus, UniProt Q60751); assay: IGF-1R autophosphorylation in excised MCNeuA tumors (ELISA); format: in vivo; conditions: 37.5 mg/kg i.p. three times a week, 16 hours after final dose, vs vehicle
T1 construct: from tissue; host or cells: MCNeuA tumours excised from neuTg mice
T1 sequence (Q60751 31-1373): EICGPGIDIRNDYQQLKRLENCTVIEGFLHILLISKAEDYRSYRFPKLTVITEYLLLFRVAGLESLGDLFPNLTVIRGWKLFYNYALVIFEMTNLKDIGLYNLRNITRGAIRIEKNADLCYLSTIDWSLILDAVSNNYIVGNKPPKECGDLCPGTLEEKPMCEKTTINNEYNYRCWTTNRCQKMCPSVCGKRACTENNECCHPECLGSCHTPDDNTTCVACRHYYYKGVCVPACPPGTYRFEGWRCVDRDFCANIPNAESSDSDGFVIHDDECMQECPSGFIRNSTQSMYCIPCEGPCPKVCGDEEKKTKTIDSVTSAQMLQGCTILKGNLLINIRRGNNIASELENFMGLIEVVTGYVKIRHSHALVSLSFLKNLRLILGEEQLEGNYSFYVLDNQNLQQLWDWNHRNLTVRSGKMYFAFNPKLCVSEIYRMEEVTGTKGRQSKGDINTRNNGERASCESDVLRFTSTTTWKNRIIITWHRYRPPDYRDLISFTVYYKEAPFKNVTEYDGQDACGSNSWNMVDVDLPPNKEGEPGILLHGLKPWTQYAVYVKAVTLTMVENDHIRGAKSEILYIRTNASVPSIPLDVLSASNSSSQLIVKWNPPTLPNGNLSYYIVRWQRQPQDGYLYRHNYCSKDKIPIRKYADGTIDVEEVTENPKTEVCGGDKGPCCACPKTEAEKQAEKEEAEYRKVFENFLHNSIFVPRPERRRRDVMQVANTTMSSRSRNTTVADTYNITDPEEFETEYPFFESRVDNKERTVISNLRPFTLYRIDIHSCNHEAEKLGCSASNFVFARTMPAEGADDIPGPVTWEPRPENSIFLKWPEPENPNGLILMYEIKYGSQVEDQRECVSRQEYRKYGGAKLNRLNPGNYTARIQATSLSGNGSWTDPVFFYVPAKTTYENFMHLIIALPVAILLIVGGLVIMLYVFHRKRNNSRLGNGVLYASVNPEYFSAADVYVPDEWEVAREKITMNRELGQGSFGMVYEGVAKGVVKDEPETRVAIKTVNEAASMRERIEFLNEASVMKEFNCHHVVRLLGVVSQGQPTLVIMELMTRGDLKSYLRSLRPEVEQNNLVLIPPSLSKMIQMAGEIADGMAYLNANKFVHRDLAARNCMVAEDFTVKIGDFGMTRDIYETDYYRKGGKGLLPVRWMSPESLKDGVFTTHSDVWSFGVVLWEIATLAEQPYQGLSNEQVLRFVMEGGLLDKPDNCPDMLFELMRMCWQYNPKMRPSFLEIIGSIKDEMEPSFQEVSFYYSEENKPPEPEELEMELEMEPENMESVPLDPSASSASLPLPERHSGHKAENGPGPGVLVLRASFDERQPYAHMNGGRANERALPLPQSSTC
Experimental: Tumors were homogenized in 50 mM HEPES, pH 7.6, 150 mM NaCl, 1 mM PMSF, 2 μM leupeptin, 2 μM Pepstatin A, and 2 mM Na3VO4, and solubilized by the addition of 1% Triton x-100. Soluble lysates were prepared as described for cell culture studies. Tyrosine phosphorylation of IGF-1R was determined by ELISA as described for MCF-7 cells. Phosphorylation of HER2/neu was determined by western blot employing the phospho-specific antibody as in the cell culture studies. The degree of phosphorylation for each receptor was normalized to total receptor protein content in the tumor samples as determined by western blotting with antibodies against the human IGF-1R and the rodent HER2/neu.

[7] = pure NDGA; cited from earlier work
[8] = test system: Kelly human neuroblastoma cells
Experimental: Briefly, 7×10^6 Kelly human neuroblastoma cells were resuspended in a 1:1 mixture of PBS and Matrigel (BD Clontech Inc.) and 100 μl of the mixture was injected subcutaneously into the flanks of 6-12 week-old BALB/c nude mice. […] Tumors were then harvested, weighed and measured. The formula width^2×length/2 was used to calculate tumor-volumes.

[9] = test system: MCF-7/neo cells; assay: Growth of MCF-7/neo cells with RTK inhibitors, 6 days (CyQuant); format: cell-based; conditions: Homo sapiens, MCF7, 144 h, read-out: one half maximal effect on growth
Experimental: MCF-7/neo or MCF-7/HER2-18 cells were plated in 96 well plates (4×10^3 cells/well) in 100 μl/well of DMEM-10 medium. […] Media with inhibitors was refreshed on day 3 and the cultures were harvested on day 6. The plates were inverted onto paper towels with gentle blotting to remove growth medium without disrupting adherent cells. Each plate was kept at −80° C. until assayed for cell growth. After thawing the plate at room temperature, 200 μl of CyQuant GR solution was added to each well and the plates were incubated in the dark for five minutes. Fluorescence was measured with a SpectraMax Gemini XS fluorescence microplate reader (Molecular Devices) with 480-nm excitation and 520-nm emission.

## CC(Cc1ccc(O)c(O)c1)C(C)Cc1ccc(O)c(O)c1 (centres unmarked) [NDGA, nordihydroguaiaretic acid]
[1]
  growth of pancreatic cancer cells in vitro: inhibiting
[2]
  IGF-stimulated Akt phosphorylation: dose-dependent inhibition
[3]
  percentage of sub-G0 cells: dramatic, dose-dependent increase
[4]; 60 μM, within 24 hours
  cell number: dramatically reduced
[4]; up to 3 days
  lowest concentration significantly reducing rate of proliferation: 15 µM
[5]
  activation of the PDGF receptor: inhibits
[6]
  IGF-1R autophosphorylation in tumors: reduced
[7]
  toxicity: minimal toxicity
[8]; 50 mg/kg daily for 10 d, nude mice, Kelly xenografts
  inhibition of tumor growth: 50%
[8]; mouse, in vivo
  tolerability in mice: very well tolerated
[9]
  pIC50: 4.90
